Laboratory results taken from patent US7105566B2, “Methods of treatment during vascular procedures” (Allergan, Inc., priority 2002, dated 2006).
Several values for one entry are separate records, joined by “and”; a condition that tells them apart may be missing. Equal values may be shown once.

Key:
female ZDF rats = test: Serum triglycerides and cholesterol in female ZDF rats, Compound 1 and Compound 2 at 10 mg/kg; assay type: in vivo, rat; conditions: 10 mg/kg oral
Method: A similar experiment to that described above was performed. Briefly, female ZDF rats (12 weeks old) were fed either a PM 5008 diet or a GMI 13004 diet. Control vehicle consisted of 2% DMSO and 98% corn oil. Compound 1 and Compound 2 were administered at a dosage of 10 mg/kg body weight. Dosings were administered at approximately 8 a.m. Serum was collected on the first day of dosing at approximately 8 a.m. (Day 1, 0 hour) and 2 p.m. (Day 1, 6 hour); the fourth day of dosing at approximately 8 a.m. (Day 4, 0 hour); and the last day of dosing at approximately 8 a.m. (Day 7, 0 hour) and 2 p.m. (Day 7, 6 hour). The levels of triglycerides and cholesterol in the serum samples were measured. The results are shown in Table 2 and are illustrated graphically in FIGS. 3A and 3B.

male SJL mice [1] = test: Serum triglycerides (STG) in male SJL mice; assay type: in vivo, mouse
Method: Male SJL mice were dosed orally with vehicle, Compound 1 (an RAR pan-antagonist), or Compound 3 (an RARE antagonist) for 4 consecutive days. The structure and synthesis of Compound 1 is described in Example I. The structure of Compound 3 is shown below, and the compound was synthesized using routine methods:
The test compounds were dissolved in corn oil and given at a dosage/volume of 20 mg/5 ml/kg.
On day 3, serum triglycerides (STG) were determined from samples collected at 7 a.m.
(§1) On day 4, animals were fasted after dosing, starting at 8 a.m. Following 6 hours of fasting, blood samples were collected prior to intravenous injection of WR-1339 at 100 mg/5 ml/kg. Additional serum samples were collected at 1 and 2 hours after WR-1339 injection. WR-1339 is a detergent that inactivates lipoprotein lipase and thus prevents the removal of triglycerides from circulation. By measuring the increase of STG after WR-1339 administration in fasted animals, the hepatic triglyceride (HTG) output during fasting can be estimated.
(§2) Due to the lack of effect of Compound 3 at 20 mg/kg, the dose was increased to 100 mg/kg in the same set of mice. STG was determined on day 3 prior to dosing (Day 3, 8 a.m.). […] To ensure that Compound 3 would be bioavailable, Compound 3 was dissolved in DMSO and given by intraperitoneal injections, once at 4 p.m. on day 3 and once at 8 a.m. on day 4, at a dosage of 100 mg/kg/injection. Administration of WR-1339 and blood collections on day 4 were similarly conducted as described above.

male SJL mice [2] = test: Hepatic triglyceride (HTG) output after WR-1339 injection in fasted male SJL mice; assay type: in vivo, mouse
Method: as §1, §2

[3] = tested on: chronic hypertriglyceridemic patients; conditions: de Man et al. 2000; cited from earlier work
[4] = GMI 13004 diet, group mean of 5 rats, first day of dosing, 2 p.m.
[5] = GMI 13004 diet, group mean of 5 rats, first day of dosing, about 8 a.m. (baseline)
[6] = GMI 13004 diet, group mean of 5 rats, fourth day of dosing, 8 a.m.
[7] = GMI 13004 diet, group mean of 5 rats, last day of dosing, 2 p.m.
[8] = GMI 13004 diet, group mean of 5 rats, last day of dosing, 8 a.m.
[9] = GMI 13004 diet, individual animals, first day of dosing, 2 p.m.
[10] = GMI 13004 diet, individual animals, first day of dosing, about 8 a.m. (baseline)
[11] = GMI 13004 diet, individual animals, fourth day of dosing, 8 a.m.
[12] = GMI 13004 diet, individual animals, last day of dosing, 2 p.m.
[13] = GMI 13004 diet, individual animals, last day of dosing, 8 a.m.

## Cc1ccc(C2=CC(C)(C)Oc3c(Br)cc(C(=O)Nc4ccc(C(=O)O)c(F)c4)cc32)cc1 [Compound 2]
Female ZDF rats
  effect on lowering serum cholesterol: more modest effect
  serum triglycerides as % of pre-treatment levels: about 40%
Female ZDF rats; [4]
  Cholesterol day 1, 6 hr, Mean: 106
  Triglycerides day 1, 6 hr, Mean: 1321
Female ZDF rats; [5]
  Cholesterol day 1, 0 hr, Mean: 119
  Triglycerides day 1, 0 hr, Mean: 1471
Female ZDF rats; [6]
  Cholesterol day 4, 0 hr, Mean: 77
  Triglycerides day 4, 0 hr, Mean: 571
Female ZDF rats; [7]
  Cholesterol day 7, 6 hr, Mean: 62
  Triglycerides day 7, 6 hr, Mean: 602
Female ZDF rats; [8]
  Cholesterol day 7, 0 hr, Mean: 66
  Triglycerides day 7, 0 hr, Mean: 560
Female ZDF rats; [9]
  Cholesterol day 1, 6 hr: 114 and 84 and 90 and 108 and 132
  Triglycerides day 1, 6 hr: 1260 and 1338 and 1140 and 1344 and 1524
Female ZDF rats; [10]
  Cholesterol day 1, 0 hr: 120 (2×) and 96 (2×) and 162
  Triglycerides day 1, 0 hr: 1464 and 1194 and 1284 and 1668 and 1746
Female ZDF rats; [11]
  Cholesterol day 4, 0 hr: 84 and 66 and 72 (2×) and 90
  Triglycerides day 4, 0 hr: 642 and 804 and 210 and 630 and 570
Female ZDF rats; [12]
  Cholesterol day 7, 6 hr: 72 and 60 (2×) and 54 and 66
  Triglycerides day 7, 6 hr: 402 and 600 and 360 and 738 and 912
Female ZDF rats; [13]
  Cholesterol day 7, 0 hr: 78 (2×) and 60 (2×) and 54
  Triglycerides day 7, 0 hr: 294 and 588 and 474 and 726 and 720

## Cc1ccc(C2=CCC(C)(C)c3cc(O)c(C(=O)Nc4ccc(C(=O)O)c(F)c4)cc32)cc1 [Compound 3]
Male SJL mice [1]; 20 mg/kg oral daily
  non-fasting STG (Day 3, 8 a.m.): not observed
Male SJL mice [1]; 100 mg/kg intraperitoneal in DMSO
  STG 16 hours after a single intraperitoneal dose (Day 4, 8 a.m.): clear lowering of STG
Male SJL mice [1]; 100 mg/kg oral
  STG on day 3 prior to dosing (Day 3, 8 a.m.): no lowering of STG was observed
Male SJL mice [1]; 100 mg/kg/injection intraperitoneal
  STG after fasting (Day 4, 2 p.m.): effect disappeared after fasting
Male SJL mice [2]; 20 mg/kg oral daily for 4 days, fasted
  HTG output after WR-1339 injection: not observed
Male SJL mice [2]; 100 mg/kg/injection intraperitoneal, WR-1339, fasted
  HTG output: reduced

## CC(C)c1c(C(=O)Nc2ccccc2)c(-c2ccccc2)c(-c2ccc(F)cc2)n1CC[C@@H](O)C[C@@H](O)CC(=O)O [atorvastatin]
[3]
  effect on impaired vasodilation: reverse the impaired vasodilation
